From patent US6780839B2, “Use of secretin-receptor ligands in treatment of cystic fibrosis (CF) and chronic obstructive pulmonary disease (COPD)” (Pharmagene Laboratories Ltd., priority 2000, dated 2004)

What was measured:
[1] = test system: human tertiary bronchus from non-CF donors; assay: Short circuit current across the bronchial wall, modified Ussing chamber; assay type: cell-based
Text: In brief, non-branching regions of the human tertiary bronchus from non-CF donors were dissected, cut longitudinally and mounted in between the two compartments of a modified Ussing chamber to measure the short circuit current across the bronchial wall. Both luminal (airway) and basolateral membranes were bathed in oxygenated Krebs extracellular solution and the tissue voltage clamped to zero to allow changes in short circuit current in response to secretin to be measured. Amiloride at a concentration of 10 μM was initially added to the luminal membrane (FIG. 5, point a)(as described by those in the art) to partially block the predominant sodium ion current and unmask underlying ionic currents. On attainment of a stable base line, 3 μM human secretin (supplied by Sigma, catalogue number S714) was added to the luminal membrane (FIG. 5, point b).

[2] = test system: primary human tertiary bronchial epithelial cells; assay: Cl- efflux by MQAE fluorescence; assay type: cell-based; conditions: FIG. 8
Procedure: Molecular Probes). In brief, primary human, tertiary bronchial epithelial cells were isolated as previously described and cultured in a 96 well plate. On reaching confluency, cells were loaded overnight with 4 mM MQAE. Cells were washed in a chloride containing HEPES buffer, before passive Cl^− efflux was initiated by the addition of a Cl^− free buffer. […] 100 nM Secretin mediated Cl^− efflux was inhibited by the non-selective Cl^− blocker NPPB (open circles).

[3] = test system: human CF tertiary bronchus; assay: Short circuit current in CF bronchus, modified Ussing chamber; assay type: cell-based
Procedure: The experiment described above was repeated using human CF tertiary bronchus, using 1 μM secretin.

[4] = test system: primary human tertiary bronchial epithelial cells derived from non-CF donors; assay: Short circuit current in confluent tertiary bronchial epithelial cell monolayers, modified Ussing chamber; assay type: cell-based
Text: Functional effects of the secretin receptor were probed in epithelial cells derived from the human tertiary bronchus. In brief, tertiary bronchial epithelial were isolated by overnight protease digestion and then cultured until confluency on Snapwell (Costar) permeable supports. The supports were mounted in a modified Ussing chamber, and both luminal and basolateral membranes were bathed in oxygenated Krebs extracellular solution. The cells were voltage clamped to zero to allow changes in short circuit current Isc in response to secretin to be measured. As previously described, 10 μM amiloride was initially added to the luminal membrane (FIG. 6, point a)followed by the addition of 100 μM secretin to the luminal membrane (FIG. 6, point b). A time matched, amiloride-treated control is denoted by the thin trace.

[5] = test system: rats; conditions: injected intracerebroventricularly; cited from earlier work
[6] = test system: rat cholangiocytes; conditions: by translocation of AQP-1 water channels; cited from earlier work
[7] = 10 μM ATP or UTP on apical membrane, FIG. 5 point c

O=c1ccn([C@@H]2O[C@H](COP(=O)(O)OP(=O)(O)OP(=O)(O)O)[C@@H](O)[C@H]2O)c(=O)[nH]1 [UTP]
ionic movement (short circuit current) [1, 7]: stimulate a similar ionic movement of similar magnitude

O=C(O)c1cc([N+](=O)[O-])ccc1NCCCc1ccccc1 [NPPB, 5-nitro-2-(3-phenylpropyl-amino)benzoic acid]
effect on secretin mediated changes in MQAE fluorescence (Cl- efflux) ([2]; 100 μM NPPB with 100 nM secretin): abolished

N=C(N)NC(=O)c1nc(Cl)c(N)nc1N [amiloride]
effect on underlying sodium current ([3]; amiloride, FIG. 7 point a): blocks the underlying sodium current

secretin
ionic movement (short circuit current) ([1]; 3 μM human secretin on luminal membrane after 10 μM amiloride, FIG. 5): stimulate ionic movement in a manner consistent with the movement of a negatively charged ion
ionic movement (short circuit current) ([3]; 1 μM secretin after amiloride, FIG. 7 point b): stimulates ionic movement of a negatively charged ion
ionic movement (short circuit current Isc) ([4]; 100 μM secretin on luminal membrane after 10 μM amiloride, FIG. 6): stimulated ionic movement in a manner consistent with the movement of a negatively charged ion
defecation [5]: significantly increased defecation
novel-object approaches [5]: decreased novel-object approaches
stereotypic behaviour [5]: no significant effects on stereotypic behaviour
Cl- efflux (changes in MQAE fluorescence) ([2]; nanomolar concentrations of secretin (12.5 nM, 100 nM), Cl- free buffer): stimulated Cl^− efflux
concentration dependent increase in osmotic H2O permeability [6]: 60%

Nc1ncnc2c1ncn2[C@@H]1O[C@H](COP(=O)(O)OP(=O)(O)OP(=O)(O)O)[C@@H](O)[C@H]1O [ATP]
ionic movement (short circuit current) [1, 7]: stimulate a similar ionic movement of similar magnitude

COc1ccc(Cl)cc1C(=O)NCCc1ccc(S(=O)(=O)NC(=O)NC2CCCCC2)cc1 [glibenclamide]
suppression of secretin mediated ionic movement ([4]; 500 μM glibenclamide (CFTR inhibitor)): failed to suppress secretin mediated ionic movement
